Test results as given in patent US20060009478A1, “Methods for the treatment of back pain” (priority 2003, published 2006).
Where “and” joins values, the source holds several entries; their conditions need not be identical. Equal entries are not always repeated.

What was measured:
[1] = system: IL13; experiment: Plasma cytokine concentration, Pointilliste Human Th1/Th2 Cytokine Canvas; type: in vivo; conditions: OXY = oxycodone QID, BID/QID = combination drug of oxycodone and naltrexone BID/QID
Protocol: (§1) Plasma samples from selected subjects in the clinical study were used to assay for the presence and concentration of selected cytokines.
(§2) Plasma samples were analyzed using a commercial cytokine assay from Pointilliste (www.pointilliste.com) to quantify the concentrations of IL2, IL4, IL5, IL6, IL10, IL13, GM-CSF, interferon and TNFα. Plasma samples were separately analyzed for IL1αand IL1β, which were quantitated using a conventional cytokine assay by Pointilliste. The cytokine assay for the quantitation of IL2, IL4, IL5, IL6, IL10, IL13, GM-CSF, interferon and TNFα employed, Pointilliste's Human Th1/Th2 Cytokine Canvas product which contains binding sites for each of these nine cytokines.
(§3) Two measurements (duplicates) for each cytokine were possible for each plasma sample applied to a canvas, since the canvas has two binding sites for each cytokine.
(§4) Fifty-seven frozen human plasma samples containing EDTA as an anticoagulant were thawed on ice and transferred to a sterile 96-deep well polypropylene plate. The plate was centrifuged briefly at 4° C. to clarify the plasma. Aliquots of clarified plasma were removed for cytokine analysis, and the remaining samples in the 96-deep well polypropylene plate were stored at −80° C.
(§5) The aliquots of clarified plasma were transferred to sterile non-protein binding 96-well polypropylene plates to enable parallel processing of the samples. Two different 96 well plates were used, and each received a subsample of the aliquots at different dilutions. Two dilutions (1 in 1 and 1 in 10) of each sample were assayed on two separate human Th1/Th2 cytokine canvases. In order to quantify the cytokine concentrations, standard curves were generated for each dilution. A mixture of 9 cytokines was run on each of the canvases and used to calculate a standard curve, which was used to determine the amount of each cytokine in the samples. The standard curves were plotted with the signal intensity as a function of the cytokine concentration in ng/ml. A CCD camera was used with Pointilliste's Canvas Analysis Tools software to generate data corresponding to cytokine concentrations.

[2] = system: interferon gamma; experiment: as above; type: in vivo; conditions: OXY = oxycodone QID, BID/QID = combination drug of oxycodone and naltrexone BID/QID
Protocol: as §1, §2, §3, §4, §5

[3] = system: IL6; experiment: as above; type: in vivo; conditions: OXY = oxycodone QID, BID/QID = combination drug of oxycodone and naltrexone BID/QID
Protocol: as §1, §2, §3, §4, §5

[4] = system: IL4; experiment: as above; type: in vivo; conditions: OXY = oxycodone QID, BID/QID = combination drug of oxycodone and naltrexone BID/QID
Protocol: as §1, §2, §3, §4, §5

[5] = system: TNFα; experiment: as above; type: in vivo; conditions: OXY = oxycodone QID, BID/QID = combination drug of oxycodone and naltrexone BID/QID
Protocol: as §1, §2, §3, §4, §5

[6] = system: IL2; experiment: as above; type: in vivo; conditions: OXY = oxycodone QID, BID/QID = combination drug of oxycodone and naltrexone BID/QID
Protocol: as §1, §2, §3, §4, §5

[7] = system: patients with moderate to severe chronic low back pain; experiment: Short Opiate Withdrawal Scale (SOWS), low back pain study; conditions: ITT
[8] = individual measurements of plasma samples, listed as OXY
[9] = treatment group mean, random sample of subjects
[10] = all patients, change from baseline to day 1
[11] = all patients, change from baseline to day 2
[12] = all patients, change from baseline to day 3
[13] = all patients, change from baseline to day 4
[14] = all patients, last dose date (baseline)
[15] = all patients, opioid withdrawal monitoring day 1
[16] = all patients, opioid withdrawal monitoring day 2
[17] = all patients, opioid withdrawal monitoring day 3
[18] = all patients, opioid withdrawal monitoring day 4
[19] = patients with <4 weeks of dosing, change from baseline to day 1
[20] = patients with <4 weeks of dosing, change from baseline to day 2
[21] = patients with <4 weeks of dosing, change from baseline to day 3

COc1ccc2c3c1O[C@H]1C(=O)CC[C@@]4(O)[C@@H](C2)N(C)CC[C@]314 [OXY QID, oxycodone]
IL13 cytokine concentration [1, 8]: 2.362 ng/mL and 3.291 ng/mL and 3.392 ng/mL and 0.06466 ng/mL and 0.073 ng/mL and 0.1092 ng/mL and 0.1415 ng/mL and 0.1418 ng/mL and 0.1451 ng/mL and 0.1509 ng/mL and 0.169 ng/mL and 0.2847 ng/mL and 0.3385 ng/mL and 0.37 ng/mL and 0.6256 ng/mL and 0.941 ng/mL and 1.09 ng/mL and 2.079 ng/mL
Mean of IL13 concentrations [1, 9]: 0.876 ng/mL
IFN cytokine concentration [2, 8]: 0.07226 ng/mL and 0.07442 ng/mL and 0.2197 ng/mL and 0.2407 ng/mL
Mean of IFN concentrations [2, 9]: 0.152 ng/mL
IL6 cytokine concentration [3, 8]: 0.04453 ng/mL and 0.0579 ng/mL and 0.06949 ng/mL and 0.0733 ng/mL and 0.07724 ng/mL and 0.0774 ng/mL and 0.1107 ng/mL and 0.1115 ng/mL and 0.1391 ng/mL and 0.1469 ng/mL and 0.3354 ng/mL and 0.3599 ng/mL and 0.5957 ng/mL and 0.604 ng/mL
Mean of IL6 concentrations [3, 9]: 0.2 ng/mL
IL4 cytokine concentration [4, 8]: 0.0907 ng/mL and 0.09132 ng/mL and 0.1379 ng/mL and 0.1411 ng/mL and 0.2369 ng/mL and 0.2651 ng/mL and 0.4655 ng/mL and 0.4725 ng/mL
Mean of IL4 concentrations [4, 9]: 0.238 ng/mL
TNF cytokine concentration [5, 8]: 0.05312 ng/mL and 0.05316 ng/mL and 0.05332 ng/mL and 0.06095 ng/mL and 0.1469 ng/mL and 0.2 ng/mL and 0.5152 ng/mL and 0.5153 ng/mL
Mean of TNF concentrations [5, 9]: 0.2 ng/mL
IL2 cytokine concentration [6, 8]: 0.1202 ng/mL and 0.1501 ng/mL and 0.1613 ng/mL and 0.1672 ng/mL and 0.208 ng/mL and 0.2689 ng/mL and 0.3259 ng/mL and 0.4012 ng/mL and 0.4755 ng/mL and 0.5532 ng/mL and 0.7233 ng/mL and 1.583 ng/mL and 1.817 ng/mL and 0.092 ng/mL
Mean of IL2 concentrations [6, 9]: 0.503 ng/mL
SOWS change from baseline, MAX [7, 10]: 1.9
SOWS change from baseline, MEAN(SD) [7, 10]: 0.3 (0.47)
SOWS change from baseline, MEDIAN [7, 10]: 0.2
SOWS change from baseline, MIN [7, 10]: −0.7
SOWS change from baseline, MAX [7, 11]: 2.4
SOWS change from baseline, MEAN(SD) [7, 11]: 0.3 (0.53)
SOWS change from baseline, MEDIAN [7, 11]: 0.2
SOWS change from baseline, MIN [7, 11]: −1.1
SOWS change from baseline, MAX [7, 12]: 1.7
SOWS change from baseline, MEAN(SD) [7, 12]: 0.2 (0.48)
SOWS change from baseline, MEDIAN [7, 12]: 0.2
SOWS change from baseline, MIN [7, 12]: −1.1
SOWS change from baseline, MAX [7, 13]: 2.7
SOWS change from baseline, MEAN(SD) [7, 13]: 0.2 (0.54)
SOWS change from baseline, MEDIAN [7, 13]: 0.1
SOWS change from baseline, MIN [7, 13]: −1.1
SOWS score, MAX [7, 14]: 1.5
SOWS score, MEAN(SD) [7, 14]: 0.3 (0.36)
SOWS score, MEDIAN [7, 14]: 0.2
SOWS score, MIN [7, 14]: 0.0
SOWS score, MAX [7, 15]: 2.5
SOWS score, MEAN(SD) [7, 15]: 0.5 (0.52)
SOWS score, MEDIAN [7, 15]: 0.4
SOWS score, MIN [7, 15]: 0.0
SOWS score, MAX [7, 16]: 2.5
SOWS score, MEAN(SD) [7, 16]: 0.5 (0.54)
SOWS score, MEDIAN [7, 16]: 0.4
SOWS score, MIN [7, 16]: 0.0
SOWS score, MAX [7, 17]: 2.2
SOWS score, MEAN(SD) [7, 17]: 0.5 (0.53)
SOWS score, MEDIAN [7, 17]: 0.4
SOWS score, MIN [7, 17]: 0.0
SOWS score, MAX [7, 18]: 2.7
SOWS score, MEAN(SD) [7, 18]: 0.4 (0.54)
SOWS score, MEDIAN [7, 18]: 0.3
SOWS score, MIN [7, 18]: 0.0
SOWS change from baseline, MAX [7, 19]: 0.2
SOWS change from baseline, MEAN(SD) [7, 19]: 0.0 (0.16)
SOWS change from baseline, MEDIAN [7, 19]: 0.0
SOWS change from baseline, MIN [7, 19]: −0.2
SOWS change from baseline, MAX [7, 20]: 1.3
SOWS change from baseline, MEAN(SD) [7, 20]: 0.2 (0.66)
SOWS change from baseline, MEDIAN [7, 20]: 0.1
SOWS change from baseline, MIN [7, 20]: −0.5
SOWS change from baseline, MAX [7, 21]: 1.3
SOWS change from baseline, MEAN(SD) [7, 21]: 0.2 (0.67)
SOWS change from baseline, MEDIAN [7, 21]: 0.0
SOWS change from baseline, MIN [7, 21]: −0.5
